Measurements taken from US8791163B2 (McGill University, priority 2006, dated 2014).
Where “and” joins values, the source holds several entries; their conditions need not be identical. Equal entries are not always repeated.

Legend:
[1] = tested on: Male rats (Sprague-Dawley); assay: EEG and EMG sleep recordings (slow wave sleep, REM sleep, wakefulness); assay type: in vivo, rat; conditions: 5b 40 mg/kg s.c.; individual rats 1-11
Procedure: Male rats (Sprague-Dawley) weighing approximately 300-340 g were used for surgical implantation of electroencephalogram (EEG) and electromyogram (EMG) electrodes. Following the recovery from surgery, the animals were housed separately in cages and kept on a 12-hour light/dark cycle (12 h light-12 h dark, 7:30 AM lights on) at a controlled temperature (21° C.). The rats had free access to food and water ad libitum.
Rats were anaesthetized using equithesin (425 mg chloral hydrate, 1 ml 100% ethanol, 98 mg pentobarbitone, 213 mg magnesium sulphate and 3 ml propylene glycol, sterile water per 10 ml of solution; 1 ml per 300 g body weight i.p.) and placed in a stereotactic frame. The skull was exposed and carefully cleaned. Two stainless-steel epidural electrodes were implanted for the registration of the EEG under stereotactic control, through 1.5 mm burr holes at the coordinates corresponding to the right parietal-occipital cortex (AP=−2 mm L=3 mm; AP=−7 mm L=3 mm) and the left parietal-occipital cortex (AP=−4.5 mm L=3 mm) according to the atlas by Paxinos (The Rat Brain in Stereotaxic Coordinates, Academic Press, 1995). Three stainless steel wire electrodes, isolated except for the last few millimeters, were implanted into the neck muscles (two bilaterally and one in the middle) for the monitoring of the EMG. The EEG epidural electrodes and the EMG wires were fitted to a six-pin female connector. For fixation to the skull, the wires and connector were covered with dental acrylic (Coltene/Whaledent Inc. USA). The animals were allowed to recover from the surgery for at least 3-4 days.
Twenty-four hours (24 h) following the surgery, the rats were placed in the recording room from noon to 9:00 PM, for 3-4 days. The rats were connected to the 6-flat cable (3M), in a freely-moving manner, from 6:00 PM to 9:00 PM for habituation. No recordings were performed at this time, however, the tolerance to the cable and the sleep behavior were observed.
Following 3-4 days of habituation, the rats received the injection of a vehicle (DMSO/saline 7:3, 0.2 ml s.c.) at 6:00 PM and the recording was carried out until 9:00 PM. On the following day the rats received diazepam (2 mg/kg, s.c.) at 6:00 PM and the recording was performed until 9:00 PM. Four days following the injection of diazepam, the rat received 5b (40 mg/kg s.c.) and the recording also performed from 6 to 9 PM.
For each experiment, a rat was placed individually in the cage and monitoring of the signal was carried out via the attachment of a non-restraining 6-wire flat cable and a female connector, which was connected to an impedance transformer with a gain of 10, located above the cage. The EEG signal was amplified (resulting in a total gain of 10,000) and locally filtered. The EMG signal was amplified as the EEG, (EEG: low filter 1.0 Hz; high 1 KHz, EMG: low filter 30.0 Hz; high 3 KHz). The power spectra analysis was performed for identification of the sleep stages. The behavior of the animals was observed during the experiment (eye movements, ambulation, rearing etc.).
The three classical vigilance-sleep states described in the rat were discriminated on the basis of the cortical EEG and neck EMG, following the classification by Ruigt et al. (Electroencephalography and clinical Neurophysiology, 1989, 73: 52-63). Wakefulness was identified by a low-amplitude and desynchronized EEG with sustained EMG activity. Slow wave sleep (SWS, includes Quiet sleep, deep sleep and Pre-REM) was clearly distinguished by high-voltage delta waves (2-4 Hz) and spindles associated with a […] EMG activity. Pre-REM sleep was characterized by a clear theta rhythm in the EEG, frequently alternating with short lasting, high voltage spindles. REM sleep was characterized by a low-amplitude EEG with a pronounced theta rhythm (5.5-8.5 Hz), a complete loss of muscle tone, and a low voltage EMG. […]

[2] = tested on: Adult Sprague Dawley rats; assay: Elevated plus maze (EPM); assay type: in vivo, rat; conditions: for Head Dips / Percentage of time in Closed Arms / Percentage of time in Open Arms / Total time duration in the Closed Arms / Total time duration in the Open Arms: injected 60 min before test
Procedure: The maze is comprised of two open arms (50×10 cm) and two closed arms (50×10×40 cm) that extend from a common central platform (10×10 cm). The apparatus, made of wood (painted black) was elevated to a height of 80 cm above floor level. The closed arms are located opposite one another. Behavior is recorded over a period of 5 min using a video camera positioned directly above the maze and rated by an observer blind to drug conditions. The major measure of interest is the amount of time spent in the open arms. As an index of general activity and distribution, the total number of entries into both open and closed arms was also recorded. […] In order to increase the sensitivity of this test to anxiolytic activity, tests are carried out under normal room illumination (25 W bulb).

[3] = 5b 40, 60 and 80 mg/kg, injected 60 min before the test, vs vehicle

In the case of COc1cccc(N(CCNC(C)=O)c2ccccc2)c1 [5b, N-{2-[(3-Methoxyphenyl)-phenylamino]ethyl}acetamide], the “REM Sleep Duration” value [1] is reported as 8.66 min and 7.04 min and 13.89 min and 4.96 min and 8.51 min and 11.6 min and 5.61 min and 7.2 min and 11.18 min and 11.76 min and 9.48 min, the “REM Sleep Latency” value [1] is reported as 76.1 min and 62.31 min and 60.92 min and 109.5 min and 86.49 min and 71.16 min and 80.13 min and 101.41 min and 80.26 min and 54.26 min and 43.83 min and the “REM Sleep Mean of a Single Episode” value [1] is reported as 1.237 min and 1.76 min and 1.54 min and 1.65 min and 1.063 min and 1.933 min and 1.402 min and 2.4 min and 2.23 min and 1.68 min and 1.896 min. The “REM Sleep Number (episodes)” value [1] was 7 episodes (2×) and 4 episodes (2×) and 9 episodes and 3 episodes (2×) and 8 episodes and 6 episodes and 5 episodes (2×), the “Slow Wave Sleep Duration” value [1] was 110.29 min and 73.51 min and 87.14 min and 92.65 min and 89.42 min and 80.00 min and 88.47 min and 79.1 min and 85.8 min and 80.84 min and 104.2 min and the “Slow Wave Sleep Latency” value [1] was 15.73 min and 2.73 min and 1.05 min and 11.9 min and 10.85 min and 23.2 min and 25.9 min and 17.62 min and 5.05 min and 25.12 min and 17.24 min. The “Slow Wave Sleep Mean of a Single Episode” value [1] was 5.01 min and 2.53 min and 3 min and 3.3 min and 3.43 min and 4.21 min and 2.6 min and 2.26 min and 6.12 min and 7.34 min and 7.44 min, the “Slow Wave Sleep Number (episodes)” value [1] was 22 episodes and 29 episodes (2×) and 28 episodes and 26 episodes and 19 episodes and 34 episodes and 35 episodes and 14 episodes (2×) and 11 episodes and the “Wakefulness Duration” value [1] was 82.38 min and 82.05 min and 88.37 min and 85.99 min and 93.61 min and 83.69 min and 87.41 min and 90.48 min and 61.05 min and 92.11 min and 78.94 min. The “Wakefulness Mean of a Single Episode” value [1] was 3.39 min and 3.54 min and 3.28 min and 2.94 min and 3.56 min and 4.9 min and 2.38 min and 2.75 min and 6.43 min and 14.56 min and 7.54 min, the “Wakefulness Number (episodes)” value [1] was 18 episodes (2×) and 26 episodes and 24 episodes and 28 episodes and 23 episodes and 36 episodes and 34 episodes and 13 episodes and 6 episodes and 12 episodes and the “Head Dips” value ([2]; 5b 40 mg/kg) was 6.30 ± 0.98. The “Percentage of time in Closed Arms” value ([2]; 5b 40 mg/kg) was 82.30 ± 2.63%, the “Percentage of time in Open Arms” value ([2]; 5b 40 mg/kg) was 17.7 ± 2.6% and the “Total time duration in the Closed Arms” value ([2]; 5b 40 mg/kg) was 219.4 ± 9.38 sec/closed arm. For the same compound, the “Total time duration in the Open Arms” value ([2]; 5b 40 mg/kg) was 47.4 ± 6.86 sec/open arm, the “Head Dips” value ([2]; 5b 60 mg/kg) was 8.27 ± 1.42 and the “Percentage of time in Closed Arms” value ([2]; 5b 60 mg/kg) was 74.47 ± 4.06 (P = 0.02) %. For the same compound, the “Percentage of time in Open Arms” value ([2]; 5b 60 mg/kg) was 25.5 ± 4.1 (P = 0.02) %, the “Total time duration in the Closed Arms” value ([2]; 5b 60 mg/kg) was 199.83 ± 11.33 (P = 0.01) sec/closed arm and the “Total time duration in the Open Arms” value ([2]; 5b 60 mg/kg) was 68.93 ± 11.02 (P = 0.02) sec/open arm. For the same compound, the “Head Dips” value ([2]; 5b 80 mg/kg) was 9.91 ± 1.50 (P = 0.02), the “Percentage of time in Closed Arms” value ([2]; 5b 80 mg/kg) was 68.18 ± 4.84 (P = 0.007) % and the “Percentage of time in Open Arms” value ([2]; 5b 80 mg/kg) was 31.8 ± 4.8 (P = 0.003) %. The “Total time duration in the Closed Arms” value ([2]; 5b 80 mg/kg) was 181.68 ± 14.32 (P = 0.006) sec/closed arm, the “Total time duration in the Open Arms” value ([2]; 5b 80 mg/kg) was 79.16 ± 12.0 (P = 0.001) sec/open arm and the “number of head dips (FIG. 4)” value ([2]; 5b 40, 60 and 80 mg/kg, injected 60 min before the test) was “increase in the number of head dips”. The “time in the open arms, percentage of time (FIG. 3)” value [2, 3] was “spent more time in the open arms” and the “time in the open arms, total time expressed in seconds (FIG. 2)” value [2, 3] was “spent more time in the open arms”.
